Test results as given in paper PMC2706954, “Dissecting Structural and Functional Diversity of the Lantibiotic Mersacidin” (Chemistry & Biology, 2009).
≈ marks a conversion by molar mass, not a printed value.

Tests used:
S. aureus R33 MRSA = format: cell-based, Staphylococcus aureus; details: R33
Procedure: (§1) Antibacterial activity of fermentation samples or purified samples was determined by Mueller-Hinton Agar diffusion bioassays using M. luteus ATCC 4698 as the indicator strain. Susceptibility testing (minimum inhibitory concentration [MIC]) for all aerobic organisms, with the exception of S. pneumoniae, was performed following the recommendations of CLSI. Susceptibility testing of S. pneumoniae was performed by two-fold serial dilutions in brain-heart-infusion broth supplemented with 50 μg/ml Ca^2+. Vancomycin was used as a reference antibiotic, and plates were incubated aerobically, with shaking, for 18–20 hr at 37°C with the MIC defined as the lowest concentration of drug that prevented visible growth.

S. aureus SH1000 = format: cell-based, Staphylococcus aureus; details: SH1000
Procedure: as §1

S. pneumoniae BAA-255 = format: cell-based, Streptococcus pneumoniae; details: BAA-255
Procedure: as §1

M. luteus ATCC4698 = format: cell-based, Micrococcus luteus; details: ATCC4698
Procedure: as §1

E. faecalis ATCC29212 = format: cell-based; details: ATCC29212
Procedure: as §1

E. faecium 7131121 VRE = format: cell-based; details: 7131121 VRE
Procedure: as §1

E. faecium ATCC19579 = format: cell-based; details: ATCC19579
Procedure: as §1

S. epidermidis NCTC11047 = format: cell-based; details: NCTC11047
Procedure: as §1

| Compound | MIC S. aureus R33 MRSA (S. aureus R33 MRSA) [µg/mL] | MIC S. aureus SH1000 (S. aureus SH1000) [µg/mL] | MIC S. pneumoniae BAA-255 (S. pneumoniae BAA-255) | MIC M. luteus ATCC4698 (M. luteus ATCC4698) [µg/mL] | MIC E. faecalis ATCC29212 (E. faecalis ATCC29212) [µg/mL] | MIC E. faecium 7131121 VRE (E. faecium 7131121 VRE) [µg/mL] | MIC E. faecium ATCC19579 (E. faecium ATCC19579) [µg/mL] | MIC S. epidermidis NCTC11047 (S. epidermidis NCTC11047) [µg/mL] |
| --- | --- | --- | --- | --- | --- | --- | --- | --- |
| C=C1NC(=O)C2NC(=O)[C@H](CC(C)C)NC(=O)C(NC(=O)[C@@H]3CSC(C)C(NC(=O)[C@H](Cc4ccccc4)NC(=O)C4NC(=O)[C@@H](N)CSC4C)C(=O)N[C@@H](CC(C)C)C(=O)N4CCC[C@H]4C(=O)NCC(=O)NCC(=O)NCC(=O)NCC(=O)N[C@@H](CCSC)C(=O)N3)C(C)SC[C@H](NC(=O)[C@H](CCC(=O)O)NC1=O)C(=O)N[C@@H]([C@@H](C)CC)C(=O)NC=CSC2C (stereo partly shown) [V11M] | 32 (≈ 17.2 µM) | 64 (≈ 34.4 µM) | 32 µg/mL (≈ 17.2 µM) | 16 (≈ 8.61 µM) | 64 (≈ 34.4 µM) | 64 (≈ 34.4 µM) | 32 (≈ 17.2 µM) | – |
| CC[C@H](C)[C@@H]1NC(=O)[C@@H]2CSC(C)C(NC(=O)[C@@H]3CSC(C)C(NC(=O)[C@H](Cc4ccccc4)NC(=O)C4NC(=O)[C@@H](N)CSC4C)C(=O)N[C@@H](CC(C)C)C(=O)N4CCC[C@H]4C(=O)NCC(=O)NCC(=O)NCC(=O)NCC(=O)N[C@@H](C(C)C)C(=O)N3)C(=O)N[C@@H](CC(C)C)C(=O)NC(C(=O)NCC(=O)N[C@@H](CCC(=O)O)C(=O)N2)C(C)SC=CNC1=O (stereo partly shown) [S16G] | 16 (≈ 8.82 µM) | 32 (≈ 17.6 µM) | 2 µg/mL (≈ 1.1 µM) | – | 64 (≈ 35.3 µM) | 64 (≈ 35.3 µM) | 32 (≈ 17.6 µM) | 16 (≈ 8.82 µM) |
| C=C1NC(=O)C2NC(=O)[C@H](CC(C)C)NC(=O)C(NC(=O)[C@@H]3CSC(C)C(NC(=O)[C@H](Cc4ccccc4)NC(=O)C4NC(=O)[C@@H](N)CSC4C)C(=O)N[C@@H](CC(C)C)C(=O)N4CCC[C@H]4C(=O)NCC(=O)NCC(=O)NCC(=O)N[C@@H](Cc4ccc(O)cc4)C(=O)N[C@@H](C(C)C)C(=O)N3)C(C)SC[C@H](NC(=O)[C@H](CCC(=O)O)NC1=O)C(=O)N[C@@H]([C@@H](C)CC)C(=O)NC=CSC2C (stereo partly shown) [G10Y] | 64 (≈ 33.1 µM) | >64 | < 4 µg/mL | < 4 | 32 (≈ 16.6 µM) | >64 | 64 (≈ 33.1 µM) | – |
| C=C1NC(=O)C2NC(=O)[C@H](C(C)C)NC(=O)C(NC(=O)[C@@H]3CSC(C)C(NC(=O)[C@H](Cc4ccccc4)NC(=O)C4NC(=O)[C@@H](N)CSC4C)C(=O)N[C@@H](CC(C)C)C(=O)N4CCC[C@H]4C(=O)NCC(=O)NCC(=O)NCC(=O)NCC(=O)N[C@@H](C(C)C)C(=O)N3)C(C)SC[C@H](NC(=O)[C@H](CCC(=O)O)NC1=O)C(=O)N[C@@H]([C@@H](C)CC)C(=O)NC=CSC2C (stereo partly shown) [L14V] | 16 (≈ 8.83 µM) | 32 (≈ 17.7 µM) | 4 µg/mL (≈ 2.21 µM) | – | 64 (≈ 35.3 µM) | >64 | 64 (≈ 35.3 µM) | 16 (≈ 8.83 µM) |
| C=C1NC(=O)C2NC(=O)[C@H]([C@@H](C)CC)NC(=O)C(NC(=O)[C@@H]3CSC(C)C(NC(=O)[C@H](Cc4ccccc4)NC(=O)C4NC(=O)[C@@H](N)CSC4C)C(=O)N[C@@H](CC(C)C)C(=O)N4CCC[C@H]4C(=O)NCC(=O)NCC(=O)NCC(=O)NCC(=O)N[C@@H](C(C)C)C(=O)N3)C(C)SC[C@H](NC(=O)[C@H](CCC(=O)O)NC1=O)C(=O)N[C@@H]([C@@H](C)CC)C(=O)NC=CSC2C (stereo partly shown) [L14I] | 8 (≈ 4.38 µM) | 32 (≈ 17.5 µM) | 1 µg/mL (≈ 0.548 µM) | – | 32 (≈ 17.5 µM) | – | 16 (≈ 8.76 µM) | – |
| C=C1NC(=O)C2NC(=O)[C@H](CCSC)NC(=O)C(NC(=O)[C@@H]3CSC(C)C(NC(=O)[C@H](Cc4ccccc4)NC(=O)C4NC(=O)[C@@H](N)CSC4C)C(=O)N[C@@H](CC(C)C)C(=O)N4CCC[C@H]4C(=O)NCC(=O)NCC(=O)NCC(=O)NCC(=O)N[C@@H](C(C)C)C(=O)N3)C(C)SC[C@H](NC(=O)[C@H](CCC(=O)O)NC1=O)C(=O)N[C@@H]([C@@H](C)CC)C(=O)NC=CSC2C (stereo partly shown) [L14M] | 16 (≈ 8.68 µM) | 32 (≈ 17.4 µM) | 4 µg/mL (≈ 2.17 µM) | 2 (≈ 1.08 µM) | 64 (≈ 34.7 µM) | 64 (≈ 34.7 µM) | 64 (≈ 34.7 µM) | – |
| C=C1NC(=O)C2NC(=O)[C@H](CC(C)C)NC(=O)C(NC(=O)[C@@H]3CSC(C)C(NC(=O)[C@H](Cc4ccccc4)NC(=O)C4NC(=O)[C@@H](N)CSC4C)C(=O)N[C@@H](CC(C)C)C(=O)N4CCC[C@H]4C(=O)NCC(=O)NCC(=O)NCC(=O)NCC(=O)N[C@@H](CC(C)C)C(=O)N3)C(C)SC[C@H](NC(=O)[C@H](CCC(=O)O)NC1=O)C(=O)N[C@@H]([C@@H](C)CC)C(=O)NC=CSC2C (stereo partly shown) [V11L] | 32 (≈ 17.4 µM) | 64 (≈ 34.8 µM) | – | – | 64 (≈ 34.8 µM) | 32 (≈ 17.4 µM) | 32 (≈ 17.4 µM) | 16 (≈ 8.69 µM) |
| C=C1NC(=O)C2NC(=O)[C@H](CC(C)C)NC(=O)C(NC(=O)[C@@H]3CSC(C)C(NC(=O)[C@H](Cc4ccccc4)NC(=O)C4NC(=O)[C@@H](N)CSC4C)C(=O)N[C@@H](CC(C)C)C(=O)N4CCC[C@H]4C(=O)NCC(=O)N[C@@H](CCC(N)=O)C(=O)NCC(=O)NCC(=O)N[C@@H](C(C)C)C(=O)N3)C(C)SC[C@H](NC(=O)[C@H](CCC(=O)O)NC1=O)C(=O)N[C@@H]([C@@H](C)CC)C(=O)NC=CSC2C (stereo partly shown) [G8Q] | 32 (≈ 16.9 µM) | >64 | – | 8 (≈ 4.22 µM) | >64 | >64 | >64 | – |
| C=C1NC(=O)C2NC(=O)[C@H](CC(C)C)NC(=O)C(NC(=O)[C@@H]3CSC(C)C(NC(=O)[C@H](Cc4ccccc4)NC(=O)C4NC(=O)[C@@H](N)CSC4C)C(=O)N[C@@H](CC(C)C)C(=O)N[C@@H](Cc4c[nH]cn4)C(=O)NCC(=O)NCC(=O)NCC(=O)NCC(=O)N[C@@H](C(C)C)C(=O)N3)C(C)SC[C@H](NC(=O)[C@H](CCC(=O)O)NC1=O)C(=O)N[C@@H]([C@@H](C)CC)C(=O)NC=CSC2C (stereo partly shown) [P6H] | – | 64 (≈ 34.3 µM) | 64, >64 μg/ml | 16 (≈ 8.57 µM) | >64 | >64 | >64 | – |
